# From US9890403B2, “Method for producing single cell oil from lignocellulosic materials” (NESTE OYJ, priority 2013, dated 2018)
# Like-named read-outs stand apart in the source and are kept apart here.
# Experiments:
# Aspergillus. oryzae = conditions: 5 days, 28 C
# Procedure: The experiments were done using a lipid producing fungal strain Aspergillus. oryzae. From the sporulating fungus grown on PDA-plates a spore suspension was made by adding 12 ml of sterile water and the spores were scraped off with inoculation loop to the liquid. The spore suspension was used for media inoculation.
# All of them contained these basic nutrients, and small amount of fine cellulose to prevent the fungus from clumping.
# The organic acids were added in so the concentration of the formic and acetic acid alone was 0, 1, 3, 5 and 7 g/l, and for the two acids together 0, 1, 3, 5, 7 and 9 g/l. After this the pH of the media was adjusted to 5.5-6.0 using 3 M NaOH. The medium was distributed to 50 ml batches into 250 ml erlenmayer flasks. The media was sterilized in autoclave 121 C 15 min. After cooling down, each flask was inoculated using 0.5 ml spore suspension mentioned earlier. For each concentration, parallel cultivations were made. The cultivations were incubated in 160 rpm shaking at 28 C 5 days. The growth was observed daily with a microscope, and in the end of the cultivation the biomass and lipid contents were determined.
# The biomass content was determined by vacuum filtering the whole content of the flask and washing the biomass with 50 ml of distilled water. After this the biomass cakes were frozen and dried overnight in freeze dryer. From the dries biomass the lipid content was analyzed according to Suutari et al. (1990). The lipids in the samples were first hydrolysed into free fatty acids, which were saponified into sodium salts thereof and thereafter methylated into methyl esters. The fatty methyl esters were analysed gas chromatographically.
# Aspergillus oryzae TKK-4 = test: Effect of furfural on microbial growth, flask cultivation (Example 7); assay type: cell-based; conditions: for DW (dry weight concentration): after 6 days of cultivation
# Procedure: (§1) Two fungal strains Aspergillus oryzae TKK-4 and Mortierella isabellina TKK-1 and one yeast strain Lipomyces starkeyi TKK-1 were cultivated in flasks in a standard medium (Table 12) with furfural addition. The microorganisms were grown for 6 days in 28° C. with 160 rpm (for fungi) and 250 rpm (for yeast). Cellulose was added to help the fungus grow with a better morphology. Furfural was added in different amounts into the medium (0-4 g/l) and the growth of the microorganisms was observed.
# Lipomyces starkeyi TKK-1 = test: as above; assay type: cell-based; conditions: for DW (dry weight concentration): after 6 days of cultivation
# Procedure: as §1
# [1] = test system: Mortierella isabellina TKK-1; test: as above; assay type: cell-based; conditions: for DW (dry weight concentration): after 6 days of cultivation
# Procedure: as §1
SMILES,Biomass concentration (Aspergillus. oryzae; acid concentration 1 g/l),Lipid content (Aspergillus. oryzae; acid concentration 1 g/l),Biomass concentration (Aspergillus. oryzae; acid concentration 3 g/l),Lipid content (Aspergillus. oryzae; acid concentration 3 g/l),Biomass concentration (Aspergillus. oryzae; acid concentration 5 g/l),Lipid content (Aspergillus. oryzae; acid concentration 5 g/l),Biomass concentration (Aspergillus. oryzae; acid concentration 7 g/l),Lipid content (Aspergillus. oryzae; acid concentration 7 g/l),also measured
"CC(=O)O [Acetic acid, acetic acid]",12.4 g/L,19.8 % from cell dry weight,11.4 g/L,20.7 % from cell dry weight,11.1 g/L,21.2 % from cell dry weight,11.5 g/L,24.3 % from cell dry weight,–
O=Cc1ccco1 [Furfural],–,–,–,–,–,–,–,–,Furfural concentration in which the microbe grew (Aspergillus oryzae TKK-4; after one week): 0.5 g/L; Furfural concentration that inhibited the growth completely (Aspergillus oryzae TKK-4; after one week): ≥ 0.75 g/L; DW (dry weight concentration) (Aspergillus oryzae TKK-4; furfural 0.1 g/l): 18.18 g/L; DW (dry weight concentration) (Aspergillus oryzae TKK-4; furfural 0.2 g/l): 16.54 g/L; DW (dry weight concentration) (Aspergillus oryzae TKK-4; furfural 0.3 g/l): 13.53 g/L; DW (dry weight concentration) (Aspergillus oryzae TKK-4; furfural 0.4 g/l): 11.58 g/L; Inhibiting concentration of furfural (Lipomyces starkeyi TKK-1): ≥ 1.8 g/L; Furfural concentration in which the microbe grew (Lipomyces starkeyi TKK-1; after a few days): 1.2 g/L; DW (dry weight concentration) (Lipomyces starkeyi TKK-1; furfural 0.6 g/l): 14.79 g/L; DW (dry weight concentration) (Lipomyces starkeyi TKK-1; furfural 1.2 g/l): 14.39 g/L; Furfural concentration in which the microbe did not grow [1]: ≥ 1 g/L; Furfural concentration in which some growth was observed ([1]; after 4-6 days): 0.8 g/L; DW (dry weight concentration) ([1]; furfural 0.2 g/l): 7.02 g/L; DW (dry weight concentration) ([1]; furfural 0.4 g/l): 13.80 g/L; DW (dry weight concentration) ([1]; furfural 0.6 g/l): 14.96 g/L; DW (dry weight concentration) ([1]; furfural 0.8 g/l): 9.28 g/L
"O=CO [Formic acid, formic acid]",12.5 g/L,19.5 % from cell dry weight,12.0 g/L,19.5 % from cell dry weight,11.2 g/L,15.9 % from cell dry weight,10.9 g/L,19.8 % from cell dry weight,–
